Assay results taken from patent US12208091B2, “Compounds for treatment of eye diseases associated with excessive vascularisation” (Active Biotech AB, priority 2019, dated 2025).
“Also recorded” adds a separate entry of the source.

Columns and labels:
[1] = system: bFGF induced corneal vascularisation; assay: bFGF induced corneal vascularisation (pellet in corneal pocket), area of neovascularisation; assay type: in vivo, C57BL/6 mice
relapsing MS patients = conditions: clinical development program; cited from earlier work
[2] = system: Human retinal microvascular endothelial cells (HRMECs); assay: Tube formation assay, combination with aflibercept (contemplated); assay type: cell-based; conditions: 1 and 10 μM combined with Aflibercept (30 nM)
Description: Microglia, especially activated microglia play important roles in angiogenesis and maintenance of vascular function haemostasis in the retinal microvasculature (Ding et al 2018). It is contemplated that a co-culture of human retinal microvasculature endothelial cells (HRMEC's) and human microglia from brain can be used to assess the effects of a compound of the disclosure, such as laquinimod, tasquinimod, ABR-215174 or ABR-215691, on neovascularization. A method such as the one outlined below may be used.
This study may be carried out substantially as outlined in Example 3.
Tube formation assay is performed using 24-well plate wells coated with Matrigel or in 96-wells as described Ding et al. 2018 (Ding et al. BMC Ophthalmology (2018) 18:249): A 96-well plate is coated with 50 μL/well Matrigel at 37° C. for 30 min. After co-culturing with microglia for 24 h, HRMECs are seeded on the Matrigel at 1.5×10^4 cells/well in 100 μL medium. After a period of time, for example 4 h, tube formation is observed and photographed with a microscope (Leica Microsystems). Images are analysed using the Angiotool plugin (Zudaire et al., 2011, PLoS one, 6, 11, e27385) for ImageJ (NIH public domain). Total tube area, tube length, density, lacunarity, and branching index (number of junctions and endpoints) are quantified.

[3] = system: Human retinal microvascular endothelial cells (HRMECs); assay: LPS-activated microglia-induced HRMEC tube formation (co-culture); assay type: cell-based; conditions: 10 μM; normalised to vehicle 0%, sulforaphane 100%
Procedure: The following experimental groups were included in the study: • Group 1: […] Sulforaphane (10 μM, positive control, anti-angiogenic effects) • Group 3: Aflibercept (“Eylea” 40 μg/ml, positive control, partial anti-angiogenic effects) • Group 4: […] Human retinal microvascular endothelial cells (HRMECs) were purchased from Neuromics (Cat #HEC09, Lot #2872) and cultured according to manufacturer's instructions in Endo-Growth media (Cat #EKG001, Lot #EKG0011902269) supplemented with Endothelial Growth Factor (Cat #EKG001, Lot #EGK00125) on AlphaBiocoat coated T25 flasks at 37° C. 5% CO2. […] Human microglia were seeded onto PLL coated cell culture inserts (Sarstedt, Cat #83.3932.040) at 103 000 cells/cm^2. […] The method for co-cultures of microglia and HRMECs was modified from protocol described by Ding et al. 2018 (Ding X, Gu R, Zhang M, Ren H, Shu Q, Xu G, Wu H. Microglia enhanced the angiogenesis, migration and proliferation of co-cultured RMECs. […] PMID: 30223824; PMCID: PMC6142340) and Ji Cho et al. 2019 (Ji Cho M, Yoon […], Park J, Lee J, Park J G, Cho Y L, Hun Kim J, Jang H, Park Y J, Lee S H, Min J K. Oxidative stress-mediated TXNIP loss causes RPE dysfunction. […] PMID: 31615975; PMCID: PMC6802648). Microglia was activated with LPS (100 ng/ml) in microglia complete growth media without FBS with simultaneous treatment of freshly prepared study compounds, Eylea and vehicle for 24 hours. HRMECs were incubated in basal Endo-Growth media for 24 hours before co-culturing. […] Media in microglia inserts containing LPS was replaced to corresponding freshly prepared study compounds, aflibercept and sulforaphane in basal Endo-Growth media. […] 5% CO2, stained with calcein-AM (5 μM) for 30 min and imaged using a fluorescence microscope (Leica Thunder 3D Tissue Imager, Leica Microsystems). Images were analyzed using the AngioTool software (Zudaire E, Gambardella L, Kurcz […] Computational Tool for Quantitative Analysis of Vascular Networks. PLOS ONE 6(11): e27385. https://doi.org/10.1371/journal.pone.0027385) for ImageJ (NIH public domain). Total tube area, tube length, density, lacunarity, and branching index (number of junctions and endpoints) were quantified. Images were analyzed using AngioTool software (NIH, Bethesda, MD; available in the public domain) for the following readouts: average vessels length, total vessels length, vessel area, vessels percentage area, total number of junctions, density of junctions, total number of endpoints, and mean lacunarity. […] Raw data for each of the readouts was plotted and analyzed by ordinary one-way ANOVA with Dunnett's multiple comparisons post-hoc test. […] Effect size data were analyzed by non-parametric Kruskal-Wallis test, with Dunn's multiple comparisons post-hoc test.

[4] = system: VEGF induced corneal vascularisation; assay: VEGF induced corneal vascularisation (pellet in corneal pocket), area of neovascularisation; assay type: in vivo, C57BL/6 mice; design: Area of vasc.: unit not given beside the values
Procedure: The area of the neovascularisation can be measured using the formula: Area=0.2·VL·CH·π wherein vessel length (VL) and continuous circumferential zone (in clock hours=CH) are measured as defined in FIG. 1. Treatment with Laquinimod of VEGF Induced Corneal Vascularisation
Hydron pellets for induction of vascularisation were prepared from stimulant (VEGF) and binding agent (sucralfate).
53 CR female C57BL/6 mice aged 6 to 8 weeks were prepared for surgery by anesthetising with 90 mg/kg of pentobarbital, ip. Corneal vascularisation was induced by placement of a pellet in a corneal pocket cut in one eye. Signs for ocular irritation or infection were carefully monitored.
[…] Vascularisation was measured on day 8.

[5] = group 4: 10 μg/animal topical bid ×5, measured day 6
[6] = group 6: 10 μg/animal topical qid ×5, measured day 6
[7] = group 4: 10 μg/animal topical bid ×7, measured day 8
[8] = group 5: 50 μg/animal topical bid ×7, measured day 8
[9] = group 6: 10 μg/animal topical qid ×7, measured day 8
[10] = group 7: 50 μg/animal topical qid ×7, measured day 8

Compound: CCN(C(=O)c1c(O)c2c(Cl)cccc2n(C)c1=O)c1ccccc1 [laquinimod]
- Inhibition of corneal vascularisation induced by bFGF ([1]; 0.5 mg/kg qid, group 6): 37%
- Area of vasc. [1, 5]: 3.16 ± 0.06
- Area percent of positive control [1, 5]: 89%
- Area of vasc. [1, 6]: 2.25 ± 0.16
- Area percent of positive control [1, 6]: 63%
- Area percent of positive control ([1]; group 7: 50 μg/animal topical qid ×5, measured day 6): 44%
- annual relapse rate (relapsing MS patients): consistent clinical benefit
- effect on tube formation of combination compared to each compound used as monotherapy [2]: clear additive effect
- Normalized effect size on average vessel length [3]: 53%
- Inhibition of corneal vascularisation induced by VEGF ([4]; 0.5 mg/kg bid, group 4): did not provide for any inhibition; also recorded: no inhibition
- Inhibition of corneal vascularisation induced by VEGF ([4]; 0.5 mg/kg qid, group 6): 8%
- Inhibition of corneal vascularisation induced by VEGF ([4]; 2.5 mg/kg bid, group 5): 46%
- Inhibition of corneal vascularisation induced by VEGF ([4]; 2.5 mg/kg qid, group 7): 50%
- Area of vasc. [4, 7]: 1.49 ± 0.13
- Area percent of positive control [4, 7]: 101%
- Area of vasc. [4, 8]: 0.79 ± 0.06
- Area percent of positive control [4, 8]: 54%
- Area of vasc. [4, 9]: 1.35 ± 0.09
- Area percent of positive control [4, 9]: 92%
- Area of vasc. [4, 10]: 0.74 ± 0.11
- Area percent of positive control [4, 10]: 50%
